Experimental data as given in patent US11039618B2, “Metam salts and polysulfide soil treatment” (Tessenderlo Kerley, Inc, priority 2016, dated 2021).

Key:
V. dahliae = experiment: Field test near Moses Lake, Wash.: V. dahliae colonies in soil after shank treatment; set-up: species or system Verticillium dahliae; conditions: average of three sample sites, metam sodium 191 pounds/acre, calcium polysulfide 276 pounds/acre
Protocol: A field test was performed in small plots in a grower's location in near Moses Lake, Wash. using commercial equipment, shanking the product 8-9 inches into the ground, in February 2016. A few treated areas were sampled a few months after treatment. This field is believed to be low in pest pressure. […] The mixture is compatible as a ground application, including using standard tanks, hoses, nozzles, and shanks. It is believed the product will also be stable when added to water to form a dilute product, due to the sodium or potassium hydroxide in metam. Therefore, alkali sulfide salts need not be added.
Location 1 was treated with 45 gallons per acre of Sectagon®, the metam sodium solution, equivalent to 191 pounds metam sodium per acre. This is considered a standard treatment protocol. Section 2 was treated with only liquid lime sulfur, at 90 gallons per acre (276 pounds calcium polysulfide/acre). Section 3 was treated with 30 gallons per acre Sectagon® and 30 gallons per acre liquid lime sulfur (92 pounds calcium polysulfide and 127 pounds metam sodium per acre). The treatment chemicals were obtained from Tessenderlo Kerley. A sufficient time following the treatments, V. dahliae concentrations and black dot concentrations were determined at 4 inches depth and at 8 inches depth at three random sample sites in each treated plot. No controls were run, and the variability in samples were high. […]

Pythium = experiment: Example 6: Pythium population in treated farm soil samples; assay type: cell-based; conditions: soil from another location; average over rates: LSS 45 and 90 gal/acre; metam sodium 20 and 40 gal/acre; combination 20 and 40 gal metam with 45 gal LSS; untreated 150
Protocol: Soil from a farm located in Washington state was treated with various solutions, and subsequently the population of Verticillium in treated samples were determined. Untreated samples contained 31 CFU per gram of dry soil. Soil treated with 90 gallons per acre liquid lime sulfur (276 pounds/acre or 309 kg/ha of calcium polysulfide) had less than 2 CFU per gram of dry soil. […] Samples treated with 170 pounds of metam sodium per acre and with a mixture of 138 pounds calcium polysulfide and 170 pounds of metam sodium per acre had about 70 to 80 CFU per gram of dry soil. […] The reason is not understood, and may reflect test protocols.
Clearly the test protocol and/or sample variability were over-riding factors. In tests on soil from another location, untreated soil had 150 CFU Pythium per gram of dry soil.

Verticillium dahliae = experiment: Plate tests: Verticillium counts in treated greenhouse soil; assay type: cell-based; conditions: 20 gal./acre metam
Protocol: Seven days after treatment, one soil sample per replicate was taken. V. dahliae control efficacy was assessed according to the methods below. Soil mixture was dried two weeks under greenhouse conditions. The quantity of V. dahliae in the soil was/will be assessed by dry soil plating on semi-selective medium. Dry soil samples were crushed and sieved through a #20 mesh. A small portion of each sample was incubated on six NP-10 semi-selective plates with a 6-stage Impactor (Anderson Samplers Inc., Atlanta, Ga.), using stages 2 and 3. Semi-selective NP-10 medium was prepared according to Kabir et al. (2004) and incubated at 24° C. in the dark for four weeks after spreading 0.5 g of soil. After incubation, the remaining soil was be gently washed off the plates and the number of V. dahliae microsclerotia colonies were counted on each plate under a microscope. The number of microsclerotia colonies equals the quantity of V. dahliae in soil and were extrapolated to 1 g of soil.
Plate tests were performed on selected samples to determine the Verticillium counts in treated soil through Aug. 17, 2017. Plate tests were performed as described previously. The untreated control comparative sample 1 averaged 32.5 ms per gram of soil. For reasons not known, the water check comparative sample 2, with no active ingredients added, contained only 11.5 ms per gram of soil. […]

soilborne fungi = experiment: Visual observation of general fungal growth on the plates (jar test); assay type: cell-based; conditions: observed visually on the plates
Text: The general impact of LSS on fungal growth was also observed visually on the plates.

soilborne disease = conditions: about 40 gallons of metam sodium per acre (190 Kg/ha); commercial conditions; cited from earlier work

Compound: CNC(=S)S [Metam, sodium methyldithiocarbamate]
- averaged colonies of V. dahlia per gram of soil at four inches (V. dahliae; mixture 92 + 127 pounds/acre): 30 colonies per gram of soil
- averaged colonies of V. dahlia per gram of soil at eight inches (V. dahliae; mixture 92 + 127 pounds/acre (8 inch samples called suspect)): 3 colonies per gram of soil
- average CFU Pythium per gram of dry soil (Pythium): 60 CFU per gram of dry soil
- Verticillium dahliae population (Verticillium dahliae): 3 ms per gram of soil
- reduction of fungal growth of soilborne fungi (soilborne fungi): ~100%
- reduction of certain soilborne disease (soilborne disease): ~70%
